What was measured:
S. epidermidis (RP62A) = assay: Modified AATCC 100 method, silicone membrane valves; conditions: low loading, original surface (A*)
Aspergillus niger = assay: MIC microbroth dilution (CLSI); type: cell-based; conditions: G.R. Micro collection
[1] = system: Methicillin resistant Staphylococcus aureus (MRSA) strain ATCC 33591; conditions: MRSA ATCC 33591
trypsin = assay: in vitro; type: in vitro ADME; conditions: pH 8.6
Experimental: Each peptide was dissolved in a 0.1 M NH4HCO3 buffer (pH 6.5) to yield a final peptide concentration of 1 mg/ml. A trypsin solution was prepared by dissolving 1 mg of trypsin in 50 ml 0.1 M NH4HCO3 buffer (pH 8.2). For the stability determination, 250 μl freshly made trypsin solution and 250 μl peptide solution were incubated in 2 ml of 0.1 M NH4HCO3 buffer (pH 8.6) at 37° C. on a rocking table. Aliquots of 0.5 ml were sampled at different time intervals, diluted with 0.5 ml water:acetonitrile (60:40 v/v) containing 1% TFA and analysed by RP-HPLC as described above. Samples without trypsin addition taken at 0 h and after 20 h at 37° C. were used as negative controls. Integration of the peak area at 254 nm for samples taken during the first 5 hours of the assay was used to generate the […].

[2] = system: Methicillin resistant Staphylococcus epidermidis (MRSE) strain ATCC 27626; conditions: MRSE ATCC 27626
Enterococcus gallinarum = assay: MIC microbroth dilution (CLSI); type: cell-based; conditions: vancomycin-resistant (VanC) clinical isolate
Excerpt: (§1) Cation-adjusted Mueller-Hinton broth (Oxoid Ltd., Basingstoke, UK and Trek Diagnostic Systems Ltd., East Grinstead, UK) (supplemented with 5% laked horse blood for Streptococcus spp., Corynebacterium jeikeium and Listeria monocytogenes) was used for aerobic bacteria, with an initial inoculum of approximately 10^5 colony-forming units (CFU)/m L.

[3] = system: Stenotrophomonas maltophilia; assay: MIC microbroth dilution (CLSI); type: cell-based; conditions: antibiotic-susceptible clinical isolate
Excerpt: as §1

[4] = system: Staphylococcus epidermidis RP62A; assay: CFU on silicone prosthetic liner patches; type: cell-based; conditions: washed with water
Experimental: (§2) Bacterial Strains: • Staphylococcus epidermidis RP62A • Staphylococcus hominis 58-69
(§3) Overnight colonies of S. epidermidis or S. hominis were diluted to 0.5 McFarland (1×10^8 CFU/ml) in 0.85% NaCl. The bacterial solution was further diluted in Tryptic Soy Broth media (to 1×10^5 CFU/ml) and drops of 100 μl was applied to the surfaces of the silicone patches. Silicone patches were placed on glass microscope slides, and the glass slides were placed in a moist incubation chamber and incubated for 24 hours at 37° C.
(§4) For determining CFU, the samples were vortexed in 1 ml 0.85% NaCl and serial dilutions (10^−1 to 10^−6) were made. 100 μl aliquots of the serial dilutions were streaked on blood agar plates, and further incubated overnight prior to CFU counting.
(§5) The level of bacterial inhibition was examined by number of CFU and growth zone inhibition. All materials tested were washed with water after completion of the swell and dry procedure to ensure that the activity of the materials was due to internally absorbed AMC-109 only.

[5] = system: Staphylococcus hominis 58-69; assay: CFU on silicone prosthetic liner patches; type: cell-based; conditions: washed with water
Experimental: as §2, §3, §4, §5

Clostridium difficile = assay: MIC microbroth dilution (CLSI); type: cell-based; design: unit not given beside the values; conditions: antibiotic-susceptible clinical isolate
[6] = system: Staphylococcus epidermidis RP62A; assay: Growth inhibition zones around silicone prosthetic liner; type: cell-based
Excerpt: as §2, §5

[7] = system: Staphylococcus hominis 58-69; assay: as above; type: cell-based
Excerpt: as §2, §5

Streptococcus pyogenes [8] = type: cell-based; conditions: Macrolide (M-type) resistance clinical isolate
Excerpt: as §1

S. aureus (ATCC 8325) = assay: Modified AATCC 100 method, silicone membrane valves
E. coli (5067-6002) = assay: as above; conditions: low loading, original surface (A*)
P. aeruginosa (PAO1) = assay: as above; conditions: low loading, original surface (A*)
Streptococcus pyogenes [9] = assay: Murine skin infection model, topical treatment; type: in vivo, mice; conditions: FIG. 2
Experimental: (§6) The skin of mice was infected with Staphylococcus aureus or Streptococcus pyogenes and subsequently given a total of three treatments at three hourly intervals. Three hours after the last treatment, skin biopsies were collected and the number of colony forming units (CFUs) present in the skin sample was determined. Results are shown in FIGS. 1 and 2, expressed as the number of colony forming units per mouse.
In experiment 2 (FIG. 2), compound 2 was applied in two different concentrations, as either a 1% or a 2% gel. A placebo gel and a known antibacterial “bactroban” were used as controls.
as §6, with “3, 4” for “1”, “5” for “2,”
In experiment 2 (FIG. 4), compound 7 was applied in two different concentrations, as either a 1% or a 2% gel. A placebo gel and a known antibacterial “bactroban (mupericin)” were used as controls.

Microsporum canis = assay: MIC microbroth dilution (CLSI); type: cell-based; conditions: G.R. Micro collection
Acinetobacter baumanii = assay: MIC microbroth dilution (CLSI); type: cell-based; design: unit not given beside the values; conditions: antibiotic-susceptible clinical isolate
Excerpt: as §1

Cryptococcus neoformans = assay: MIC microbroth dilution (CLSI); type: cell-based; conditions: G.R. Micro collection

CC(C)(C)c1cc(C(C)(C)C)c2[nH]c(C(C)(C)C)c(CC(NC(=O)C(N)CCCNC(=N)N)C(=O)NC(CCCNC(=N)N)C(=O)NCCc3ccccc3)c2c1 (stereo not drawn) [Compound 2]
CFU (samples containing AMC-109) (S. epidermidis (RP62A)): 0 | MIC (Aspergillus niger): 8 | MIC [1]: <3 µM | half-life at 0.1 mg/ml (trypsin): > 24 h | MIC [2]: <3 µM | MIC (Enterococcus gallinarum): 4 | MIC [3]: 8 | minimum inhibitory concentration (MIC) (S. epidermidis): 2 to 4 µg/mL | CFU ([4]; 5 minutes swell time): 0 CFU/ml | CFU ([4]; 15 minutes swell time): 0 CFU/ml | CFU ([5]; 5 minutes swell time): 0 CFU/ml | CFU ([5]; 15 minutes swell time): 0 CFU/ml | MIC (Clostridium difficile): 16 | growth inhibition zone ([6]; 5 minutes swell time): 3 mm | growth inhibition zone ([6]; 15 minutes swell time): 3 mm | growth inhibition zone ([7]; 5 minutes swell time): 4 mm | growth inhibition zone ([7]; 15 minutes swell time): 2 mm | MIC (Streptococcus pyogenes [8]): 16 | CFU (samples containing AMC-109) (S. aureus (ATCC 8325); High loading, swell concentration 8.3 mg/ml, original surface (A*)): 0 | CFU (samples containing AMC-109) (S. aureus (ATCC 8325); Low loading, 1.7 mg/ml, surface created by slicing (B*)): 0 | CFU (samples containing AMC-109) (S. aureus (ATCC 8325); Low with washing, 3.1 mg/ml, original surface (A*)): 0 | CFU (samples containing AMC-109) (S. aureus (ATCC 8325); Low with washing, 3.1 mg/ml, surface created by slicing (B*)): 0 | CFU (samples containing AMC-109) (E. coli (5067-6002)): 0 | CFU (samples containing AMC-109) (P. aeruginosa (PAO1)): 0 | number of CFUs, 2% gel compared with 1% gel (Streptococcus pyogenes [9]): more effective than the gel containing only 1% of compound 2 | number of colony forming units (CFU) in skin biopsy (Streptococcus pyogenes [9]; 1% or 2% gel, three treatments at three hourly intervals): more effective at reducing the number of CFUs than the placebo gel or the bactroban | MIC (Microsporum canis): 8 | minimum inhibitory concentration (MIC) (S. aureus): 2 to 4 µg/mL | MIC (Acinetobacter baumanii): 16 | MIC (Cryptococcus neoformans): 4

Reference: patent US20230233736A1, “ANTIMICROBIAL FORMULATIONS COMPRISING SILICONE” (AMICOAT AS, priority 2020, published 2023)
